Results published in patent publication US20230263757A1, “DISINFECTING WIPE KIT FOR CENTRAL VENOUS ACCESS DEVICES” (SterileCare Inc., priority 2022, published 2023).
Structures can show the parent of a compound that is named as a salt. Where two headings read alike, the source gives them in different places.

Tests used:
[1] = system: Pseudomonas aeruginosa SK1; test: FBEC index, checkerboard on biofilms; type: cell-based; details: for biofilm eradication concentration in combination (FBEC): EDTA + ethanol
Experimental: (§2) In step (4), microtiter plates are incubated at 37° C. for 24 h. then (6), after incubation, the bacterial and fungal cells were dislodged from the pegs into the recovery medium described above.
(§3) Three 10-μL aliquots, for a total of 30 μL from each well of recovery medium, were spotted on MH agar plates and incubated for 24 h at 37° C. […] The FBEC determination is a modification of the FICI.

[2] = system: Proteus mirabilis ON153; test: FBEC index, checkerboard on biofilms; type: cell-based; details: for biofilm eradication concentration in combination (FBEC): EDTA + ethanol
Experimental: as §2, §3

[3] = system: C. albicans ON47; test: MIC, micro broth dilution; type: cell-based, Candida albicans; details: alone
Experimental: (§1) An assay was made using a minimum inhibitory concentration (MIC) and minimum bactericidal concentration (MBC) and minimum fungicidal concentration (MFC) determination. The MIC was determined by the micro broth dilution method in 96-well plates. Serial two-fold dilutions of tetrasodium EDTA (from 2% to 0.015%), ethanol (from 50% to 0.1%) and chlorhexidine HCl (from 100 μg/mL to 0.025 μg/mL) were prepared in MH broth with a final volume of 90 μL per well. A 10 μL containing 1×10^5 bacterial cells or 2×10^3 fungal cells were added to each well. The inoculated plates were covered with a lid, sealed with Parafilm, and incubated for 24 h at 37° C. with slight rocking on a tilting platform shaker. After incubation, the optical density at 600 nm (OD 600) of the cultures in each well was measured using an xMark™ Microplate Absorbance Spectrophotometer (Bio-Rad). […] MBCs and MFCs were determined by transferring 100 μL from each well with no apparent growth onto appropriate agar plates, followed by incubation for 24 h at 37° C.

[4] = system: Staphylococcus epidermidis SK9; test: FBEC index, checkerboard on biofilms; type: cell-based; details: for biofilm eradication concentration in combination (FBEC): EDTA + ethanol
Experimental: as §2, §3

[5] = system: S. epidermidis SK9; test: Checkerboard, FMCI; type: cell-based, Staphylococcus epidermidis; details: for microbicidal concentration in combination: EDTA + ethanol
Experimental: as §1
A fourth composition and solution included tetrasodium EDTA with ethanol or chlorhexidine HCl. This fourth composition and solution were created using checkerboard titration methods using micro broth dilution in 96-well microtiter plates. The concentrations of antimicrobials used were based on previously determined MIC values. Briefly, 200 μL, of two-fold dilutions of tetrasodium EDTA and ethanol or chlorhexidine HCl were prepared in MH or MH II broth with standardized cell suspension. […] Microtiter plates were incubated at 37° C. for 24 h, and the results were analyzed. Each test was performed in duplicate and included a growth control without adding any antimicrobials.

[6] = system: Candida albicans SK4b; test: FBEC index, checkerboard on biofilms; type: cell-based; details: for biofilm eradication concentration in combination (FBEC): EDTA + ethanol
Experimental: as §2, §3

[7] = system: 48-h-old biofilms of bacterial and fungal strains; test: MBEC assay, 24-h exposure; type: cell-based; details: 24 h of treatment
Experimental: A biofilm cultivation cell composition was provided. This fifth composition was created using an MBEC Assay® biofilm inoculator, consisting of a polystyrene lid with 96 downward-protruding pegs and a corresponding base used to grow biofilms. A standardized inoculum was diluted in an appropriate biofilm growth medium to achieve a viable cell count of 1.5×10^6 CFU/mL of bacterial cells or 5×10^5 CFU/mL of fungal cells. Then, 150 μL of this inoculum was transferred into each appropriate well, and the peg lids were inserted into the microtiter plates. The plates were sealed with Parafilm and were incubated at optimum temperature for 48 h with slight rocking for bacteria and shaking at 200 rpm for fungal strains. After incubation, the peg lid was removed from the base and rinsed twice with sterile phosphate-buffered saline (PBS) for 2 min to remove loosely attached non-sessile cells. Before the antimicrobial challenge, the pegs in column 1 (n=8) were considered the biofilm growth control; these pegs were removed from the lids, placed into 200 μL of recovery medium, and analyzed for starting biofilm cell numbers as described below. […] After the antimicrobial challenge, the pegs were rinsed twice with sterile PBS for 2 min and placed into a new 96-well plate containing 200 μL of recovery medium. The recovery plates were sealed with Parafilm, and biofilm cells were dislodged from the pegs by sonication for 30 min with a Branson 3510 bath sonicator. The biofilm cells in the recovery medium were serially diluted, and a drop dilution assay was performed to enumerate the viable cells. MBEC values were determined as the minimum concentration of antimicrobials that yielded a viable cell count at or lower than the 125 CFU/mL detection limit.

[8] = system: Escherichia coli SK2; test: FBEC index, checkerboard on biofilms; type: cell-based; details: for biofilm eradication concentration in combination (FBEC): EDTA + ethanol
Experimental: as §2, §3

[9] = system: S. epidermidis SK9; test: MBC/MFC determination; type: cell-based, Staphylococcus epidermidis; details: alone
Experimental: as §1

[10] = system: C. albicans ON47; test: FBEC index, checkerboard on biofilms; type: cell-based, Candida albicans; details: for biofilm eradication concentration in combination (FBEC): EDTA + ethanol
Experimental: as §2, §3

[11] = system: Serratia marcescens SK2; test: MIC, micro broth dilution; type: cell-based; details: alone
Experimental: as §1

[12] = system: Escherichia coli ON29; test: MIC, micro broth dilution; type: cell-based; details: alone
Experimental: as §1

[13] = system: Candida albicans SK4b; test: MIC, micro broth dilution; type: cell-based; details: alone
Experimental: as §1

[14] = system: Staphylococcus epidermidis ON170; test: MIC, micro broth dilution; type: cell-based; details: alone
Experimental: as §1

[15] = system: Stenotrophomonas maltophilia ON17; test: MIC, micro broth dilution; type: cell-based; details: alone
Experimental: as §1

[16] = system: Pseudomonas aeruginosa SK1; test: MIC, micro broth dilution; type: cell-based; details: alone
Experimental: as §1

[17] = system: Proteus mirabilis ON153; test: MIC, micro broth dilution; type: cell-based; details: alone
Experimental: as §1

[18] = system: Staphylococcus aureus ON89; test: MIC, micro broth dilution; type: cell-based; details: alone
Experimental: as §1

| SMILES | concentration alone able to eradicate all established biofilms [7] | MBC/MFC [9] | biofilm eradication concentration in combination (FBEC) [1] | biofilm eradication concentration in combination (FBEC) [2] | MIC [3] | biofilm eradication concentration in combination (FBEC) [4] | microbicidal concentration in combination [5] | biofilm eradication concentration in combination (FBEC) [6] | biofilm eradication concentration in combination (FBEC) [8] | biofilm eradication concentration in combination (FBEC) [10] | MIC [11] | MIC [12] | MIC [13] | MIC [14] | MIC [15] | MIC [16] | MIC [17] | MIC [18] | also measured |
| --- | --- | --- | --- | --- | --- | --- | --- | --- | --- | --- | --- | --- | --- | --- | --- | --- | --- | --- | --- |
| [H]/N=C(\N/C(=N/[H])NCCCCCCNC(=N)NC(=N)Nc1ccc(Cl)cc1)Nc1ccc(Cl)cc1 [Chlorhexidine HCl, 1,6-bis(4′-chlorophenylbiguanide) hexane] | 100 µg/mL | 0.8 µg/mL | – | – | – | – | – | – | – | – | – | – | – | – | – | – | – | – | Chlorhexidine HCl biofilm eradication concentration in combination (FBEC) ([1]; EDTA + chlorhexidine HCl): 3.125 µg/mL; Chlorhexidine HCl biofilm eradication concentration in combination (FBEC) ([2]; EDTA + chlorhexidine HCl): 3.125 µg/mL; MIC ([3]; Candida albicans, read-out: MIC): 1.6 µg/mL; Chlorhexidine HCl biofilm eradication concentration in combination (FBEC) ([4]; EDTA + chlorhexidine HCl): 3.125 µg/mL; Chlorhexidine HCl microbicidal concentration in combination ([5]; EDTA + chlorhexidine HCl): 0.4 µg/mL; Chlorhexidine HCl biofilm eradication concentration in combination (FBEC) ([6]; EDTA + chlorhexidine HCl): 6.25 µg/mL; Chlorhexidine HCl biofilm eradication concentration in combination (FBEC) ([8]; EDTA + chlorhexidine HCl): 3.125 µg/mL; Chlorhexidine HCl biofilm eradication concentration in combination (FBEC) ([10]; EDTA + chlorhexidine HCl): 6.25 µg/mL; MIC ([11]; read-out: MIC): 12.5 µg/mL; MIC ([12]; read-out: MIC): 0.4 µg/mL; MIC ([13]; read-out: MIC): 1.6 µg/mL; MIC ([14]; read-out: MIC): 0.1 µg/mL; MIC ([15]; read-out: MIC): 0.8 µg/mL; MIC ([16]; read-out: MIC): 1.6 µg/mL; MIC ([17]; read-out: MIC): 50 µg/mL; MIC ([18]; read-out: MIC): 0.1 µg/mL |
| O=C([O-])CN(CCN(CC(=O)[O-])CC(=O)[O-])CC(=O)[O-].[Na+].[Na+].[Na+].[Na+] [EDTA, tetrasodium EDTA] | 4% | 0.5 % w/v | 0.125 % w/v | 0.125 % w/v | 1 % w/v | 0.031 % w/v | 0.031 % w/v | 0.125 % w/v | 0.125 % w/v | 0.125 % w/v | 2 % w/v | 0.5 % w/v | 1 % w/v | 0.063 % w/v | 0.063 % w/v | 0.25 % w/v | 1 % w/v | 0.063 % w/v | EDTA biofilm eradication concentration in combination (FBEC) ([1]; EDTA + chlorhexidine HCl): 0.25 % w/v; EDTA biofilm eradication concentration in combination (FBEC) ([2]; EDTA + chlorhexidine HCl): 0.125 % w/v; EDTA biofilm eradication concentration in combination (FBEC) ([4]; EDTA + chlorhexidine HCl): 0.125 % w/v; EDTA microbicidal concentration in combination ([5]; EDTA + chlorhexidine HCl): 0.008 % w/v; EDTA biofilm eradication concentration in combination (FBEC) ([6]; EDTA + chlorhexidine HCl): 0.063 % w/v; EDTA biofilm eradication concentration in combination (FBEC) ([8]; EDTA + chlorhexidine HCl): 0.031 % w/v; EDTA biofilm eradication concentration in combination (FBEC) ([10]; EDTA + chlorhexidine HCl): 0.031 % w/v |
| CCO [Ethanol, ethanol] | 5% | 12.5 % w/v | 3.125 % w/v | 6.25 % w/v | 6.25 % w/v | 1.6 % w/v | 3.125 % w/v | 1.6 % w/v | 1.6 % w/v | 1.6 % w/v | 6.25 % w/v | 12.5 % w/v | 6.25 % w/v | 3.125 % w/v | 6.25 % w/v | 3.125 % w/v | 6.25 % w/v | 6.25 % w/v | – |
